The results in this text go back to US8882877B2, “Boron-containing synergistic urea and preparation method and application thereof” (Beijing J-Tec Technology Co., Ltd, priority 2012, dated 2014).

In one assay the test system is tomato. Description: Tomato fertilizer test (equivalent and decrement fertilizer). The class given is in vivo. The text has this: Test Four: Tomato Fertilizer Test
Test Site Laiyang: City, Shandong Province.
Grow seedling in greenhouse at Feb. 24, 2011, and plant in the greenhouse with a tomato plantation density of 4200 plant/mu.
(§1) 1. The tested fertilizer is the boron-containing synergistic urea developed and supplied by Beijing J-Tec Technology Co., Ltd. (the boron-containing synergistic urea (1) in Embodiment 3, under a trade name of “polypeptide chelated potassium”) while the control fertilizer is ordinary small granular urea and large granular urea in line with national standards; the tested vegetable is tomato (variety of “Millennium”, ? ).
(§2) 2. Test Method: equivalent fertilizer test area and decrement fertilizer test area are arranged, two treatment areas are provided in each test area, and each treatment area is arranged repeatedly for 3 times, ranked in random area and group, each treatment area has an area of 20 m^2 (5 m long, 4 m wide).
Treatment Area 1: the boron-containing synergistic urea is applied, calculated by 70 kg per mu, and flushed together with water after emergence of seedlings;
Treatment Area 2: ordinary small granular urea (as a control area, ck), calculated by 70 kg per mu, and flushed together with water after emergence of seedlings.
Treatment Area 1: the boron-containing synergistic urea is applied with a decrement of 20%, calculated by 56 kg per mu, base fertilizer and additional fertilizer each makes up 50%;
Treatment Area 2: ordinary large granular urea (as a control area, ck), calculated by 70 kg per mu, base fertilizer and additional fertilizer each makes up 50%.
3. Test Requirement: The tomato in each treatment area is harvested, weighed, and calculated separately during each collection and harvest. No other fertilizer is applied during the whole test period, and other cultivation and management measures are the same.
Select one plot (12 plots in total, indicated as 1st plot, 2nd plot and 3rd plot corresponding to each test) randomly from each treatment area 1 and treatment area 2 (control area) respectively, all are 1 m long, 1.45 m wide, and the harvested tomato is weighed on site, and results are as follows: […]

In another assay the test system is celery. Description: Celery fertilizer test (equivalent and decrement fertilizer). Type of assay: in vivo. The source says: Test Three: Celery Fertilizer Test 1. Test material: The tested fertilizer is the boron-containing synergistic urea developed and supplied by Beijing J-Tec Technology Co., Ltd. (the boron-containing synergistic urea (1) in Embodiment 3) while the control fertilizer is ordinary small granular urea and large granular urea in line with national standards: the tested vegetable is celery. Area under jurisdiction of […], Shandong Province 3. Test Method: equivalent fertilizer test area and decrement fertilizer test area are arranged, two treatment areas are provided in each test area, and each treatment area is arranged repeatedly for 3 times, ranked in random area and group. Treatment Area 1: the boron-containing synergistic urea is applied, calculated by 70 kg per mu, and flushed together with water after emergence of seedlings; Treatment Area 2: ordinary small granular urea (as a control area, ck), calculated by 70 kg per mu, and flushed together with water after emergence of seedlings. Treatment Area 1: the boron-containing synergistic urea is applied with a decrement of 20%, calculated by 56 kg per mu, base fertilizer and additional fertilizer each makes up 50%; Treatment Area 2: ordinary large granular urea, calculated by 70 kg per mu, base fertilizer and additional fertilizer each makes up 50%. 4. Test Requirement: The celery in each treatment area is harvested, weighed, and calculated separately during each collection and harvest. No other fertilizer is applied during the whole test period, and other cultivation and management measures are the same.

The subject of another assay is apple tree. Briefly: Apple tree fertilizer test (equivalent and decrement fertilizer). Particulars: Control Test Area, ordinary urea 70 kg per mu. Type of assay: in vivo, apple tree (Red Fuji apple). The text has this:
Test Five: Apple Tree Fertilizer Test 1. Test Fertilizer: the tested fertilizer is the boron-containing synergistic urea developed and supplied by Beijing J-Tec Technology Co., Ltd. (the boron-containing synergistic urea (1) in Embodiment 3) while the control fertilizer is ordinary small granular urea and large granular urea in line with national standards the tested fruit tree is apple tree (variety of “Red Fuji apple”, ? ). 2. Test Site: […], Shandong Province, 3. Tested Variety: apple tree of four years old, variety is Red Fuji apple, planting space is 2 m×3 m, plants with moderate growth, similar tree vigor, and substantially consistent yield, and conventional orchard management is conducted before the test. 4. Test Method: equivalent fertilizer test area and decrement fertilizer test area are arranged, two treatment areas are provided in each test area, 3 tested plants are included in each treatment area and each treatment area is arranged repeatedly for 3 times, ranked in random area and group; The fertilizer is applied in small holes near the plants, and the fertilizing periods are fertilizer application after leaves falling in autumn and additional fertilizer application during fruit expanding period (July and August). Treatment Area 1: the boron-containing synergistic urea is applied, calculated by 70 kg per mu, and flushed together with water; Treatment Area 2: ordinary small granular urea (as a control area, ck), calculated by 70 kg per mu, and flushed together with water. Treatment Area 1: the boron-containing synergistic urea is applied with a decrement of 20%, calculated by 56 kg per mu, base fertilizer and additional fertilizer each makes up 50%; Treatment Area 2: ordinary large granular urea (as a control area, ck), calculated by 70 kg per mu, base fertilizer and additional fertilizer each makes up 50%. Make statistical analysis to flowering numbers and petal numbers in each flower during full-blossom period in spring, and make statistical analysis to fruit setting percentage after full-blossom period and before flower thinning. Measure and record once a month after growth of new shoots; Pick 30 fruits randomly from different portions after fruit ripening, and weigh the single fruit with an electronic balance scale, measure the longitudinal diameter and the transverse diameter with a vernier caliper; observe the fruit surface and the coloring of the fruit; determine the hardness of fruit with a hardometer.

A further assay has as its system rape. Description: Rape fertilizer test (topdressing). Type of assay: in vivo. The note with it: topdressing 20 kg per mu. The text has this:
Test Two: Rape Fertilizer Test 1. Test Material: The tested fertilizer is the boron-containing synergistic urea developed and supplied by Beijing J-Tec Technology Co., Ltd. (the boron-containing synergistic urea (1) in Embodiment 3) while the control fertilizer is ordinary urea available in the market. Nanyang site: Yuanxiang Village, Nanyang Town, Qidong City of Jiangsu Province, an area of 4 mu, rape variety is “Shi Li Jia ? )”. Lvsi site: Nanxinqiao Village, […] Town, Qidong City, an area of 5 mu. 3. Test Method: the boron-containing synergistic urea is used as a topdressing fertilizer (additional fertilizer), 20 kg per mu; while the control field adopts ordinary urea (commercially available), 20 kg per mu. 4. Assessment Content: prior to harvest, field assessments such as density, plant height, effective branch, yield structure are conducted; after harvest, recount the actual yield, and the results are shown in Table 3.

The test system of the next assay is bacterial wilt. Description: Tomato disease resistance: incidence of bacterial wilt. Type of assay: in vivo. The note with it: tomato plants in test area vs control area (ck).
Description: as §1, §2
1. Tomato Growing Potential and Disease Resistance

The test system of a further assay is soybean. Briefly: Soybean fertilizer field plot test. The class given is in vivo. The source says: Test One: Soybean Fertilizer Test During the process of growth, the moisture and temperature are basically normal, which have no particular influence on the test. The basic information for the test plot is: mound albic soil, organic matter content 3.73%, and thickness of black soil layer is 18-20 cm, 1. The tested fertilizer is the boron-containing synergistic urea developed and supplied by Beijing J-Tec Technology Co., Ltd. (the boron-containing synergistic urea (1) in Embodiment 3) while the control fertilizer is ordinary urea available in the market. 2. Field tests adopt plot test (the test plot is located in Haluo Town, […], Shandong Province), three test areas are provided, each test area is divided into three treatment areas, each treatment area is 25.2 m^2, and the three test areas are tested in parallel. Apply base fertilizers uniformly in each test area and sow 4 rows in each treatment area, and subsequently apply additional fertilizers in the three treatment areas as below: Treatment Area 1: additionally apply 5 kg boron-containing synergistic urea once per mu in the flowering and pod bearing period of the soybean; Treatment Area 2: additionally apply 4 kg boron-containing synergistic urea once per mu in the flowering and pod bearing period of the soybean; Treatment Area 3 (control area, ck): additionally apply 5 kg ordinary urea once per mu in the flowering and pod bearing period of the soybean as a control; 4. Adopt normal field management in the growth period of the soybean, harvest and monitor the yield in the mature period respectively, and take the average values of the corresponding treatment areas in the three test areas as the statistical results, see Table 1.

Setting [1] is: Decrement fertilizer test (56 kg per mu) and its control (70 kg per mu).
The mark [2] stands for this setting: Decrement fertilizer test (synergistic urea 56 kg per mu) and its control (large granular urea 70 kg per mu).
Where [3] appears, read: Equivalent fertilizer test and its control, 70 kg per mu.
Setting [4] is: Equivalent fertilizer test and its control, 70 kg per mu, flushed with water.
The mark [5] stands for this setting: Lvsi site, two months after fertilizer application.
The mark [6] stands for this setting: Nanyang site, two months after fertilizer application.
Where [7] appears, read: Treatment Area 1 / 3 (ck): 5 kg per mu.
The mark [8] stands for this setting: Treatment Area 1 / 3 (ck): 5 kg per mu once in flowering and pod bearing period.

Turning to `NC(N)=O` [ordinary large granular urea, urea], in the assay on tomato (setting [1]), the “Average Yield among three plots” value is on record as 116.0 kg and the “Average Yield per mu” value is 3896.7 kg. Moreover, in the assay on tomato (setting [2]), the “Yield 1st plot” value was determined as 114.3 kg, the “Yield 2nd plot” value turned out to be 118.1 kg and the “Yield 3rd plot” value is 115.6 kg. Also, the Yield in the assay with celery (20% decrement fertilizer test, 1st plot, synergistic urea 56 kg per mu, control large granular urea 70 kg per mu) was determined as 6.8 kg. Besides, in the assay with celery (20% decrement fertilizer test, 2nd plot, synergistic urea 56 kg per mu, control large granular urea 70 kg per mu), the Yield is 6.0 kg. In the assay on celery (20% decrement fertilizer test, 3rd plot, synergistic urea 56 kg per mu, control large granular urea 70 kg per mu), the Yield worked out at 5.7 kg. Further, the Yield with celery (20% decrement fertilizer test, three plots in total, synergistic urea 56 kg per mu, control 70 kg per mu) was found to be 18.5 kg. Also, the “observation of celery leaves” value in the assay on celery (Decrement fertilizer test, 30 days after sowing) was “green and thin leaves”.

As to `NC(N)=O` [ordinary small granular urea, urea], in the assay with tomato (setting [3]), the “Average Yield among three plots” value is 114.5 kg and the “Average Yield per mu” value is listed as 3863.3 kg. Moreover, in the assay on tomato (setting [4]), the “Yield 1st plot” value is given as 111.6 kg, the “Yield 2nd plot” value was 113.8 kg and the “Yield 3rd plot” value came to 118.0 kg. Also, the Yield in the assay on celery (Equivalent fertilizer test, 70 kg per mu, 1st plot (1 m x 1.45 m), 52 days after applying fertilizer) is reported as 6.6 kg. For the same molecule, in the assay on celery (Equivalent fertilizer test, 70 kg per mu, 2nd plot, 52 days after applying fertilizer), the Yield is recorded as 7.5 kg. Also, the Yield with celery (Equivalent fertilizer test, 70 kg per mu, 3rd plot, 52 days after applying fertilizer) is 8.15 kg. Further, the Yield with celery (Equivalent fertilizer test, 70 kg per mu, three plots in total) is 22.25 kg.

`NC(N)=O` [ordinary urea, urea]: in the assay with apple tree, the “Fruit Setting Percentage” value turned out to be 74.6%, the “Increment of New Shoots” value turned out to be 34.50 cm, the “Leaf Weight” value was 79.74 g and the “Single Fruit Weight” value is 202.1 g. Further, in the assay with rape (Average of the two test sites), the “1000-Grain Weight” value is given as 4.1 g, the Density stood at 5550 plant, the “Effective Branch” value is on record as 27 each and the Grains per pod is given as 19.8 grain. In the assay on rape (Average of the two test sites), the “Plant Height” value was 190.5 cm, the Yield amounted to 262.7 kg/mu and the pods per plant was 583 pod. In addition, in the assay on rape (Lvsi site), the Yield is on record as 251.7 kg/mu. In addition, in the assay with rape (setting [5]), the “1000-Grain Weight” value was found to be 3.7 g, the Density turned out to be 5550 plant, the “Effective Branch” value is listed as 26 each and the Grains per pod is 20.5 grain. In the assay on rape (setting [5]), the “Plant Height” value worked out at 185 cm and the pods per plant amounted to 598 pod. Further, the Yield in the assay on rape (Nanyang site) stood at 269.5 kg/mu. In the assay on rape (setting [6]), the “1000-Grain Weight” value came out at 4.5 g, the Density is listed as 5550 plant, the “Effective Branch” value was 28 each and the Grains per pod stood at 19 grain. In the assay on rape (setting [6]), the “Plant Height” value is recorded as 196 cm and the pods per plant stood at 568 pod. The “incidence of bacterial wilt” value with bacterial wilt was found to be 4.54%. Further, in the assay with soybean (setting [7]), the “Practical Yield” value is on record as 131.8 kg/mu and the “Theoretical Yield” value is 134.5 kg/mu. Further, in the assay on soybean (setting [8]), the “100-Grain Weight” value is on record as 15.7 g, the “Diseased Grain Rate” value is on record as 9.7%, the “Grains Weight” value stood at 7.5 g/Plant and the “Grains per Plant” value is reported as 65.8 Grains/Plant. In addition, in the assay with soybean (setting [8]), the “Plant Height” value is 77.4 cm, the “Unfilled Grains” value is listed as 28.9 Grains/Plant, the “Worm Eaten Rate” value is on record as 17.9% and the “pods per plant” value was 30.1 Pods/Plant.
